Assay results reported in patent EP1372661B1, “GLYCOL DERIVATVES OF XANTHINES FOR TREATING IRRITABLE BOWEL SYNDROME” (SMITHKLINE BEECHAM CORPORATION, priority 2001, dated 2002).

System: Zymosan-sensitized rats
Experiment: Rodent model of zymosan-induced hyperalgesia: visceromotor response to colorectal distension
Assay type: in vivo, Adult male Sprague-Dawley rats
Conditions: intracolonic zymosan (1 mL, 25 mg/mL), CRD 80 mm Hg, 20 seconds, four hours after zymosan, baseline = 100% of control
Excerpt: Protocol for Evaluation of (E)-4-(1,3-bis(cyclohexylmethyl)-1,2,3,6-tetrahydro-2,6-dioxo-9H-purin-8-yl)cinnamic acid nonaethylene glycol methyl ether ester in a Rodent Model of Zymosan-Induced Hyperalgesia
Adult male Sprague-Dawley rats (400-425 g) housed 1-2 per cage in the animal care facility at the University of Iowa (approved by the American Association for Accreditation of Laboratory Animal Care). All experimental procedures were approved by the Institutional Animal Care and Use Committee at the University of Iowa.
Rats were deeply anesthetized with pentobarbital sodium (45 mg/kg) administered intraperitoneally. […]
The descending colon and rectum were distended by pressure-controlled inflation of a 7-8-cm-long flexible latex balloon tied around a flexible tube. […] Intracolonic pressure was continuously monitored by the aid of a pressure control device. Response was quantified as the visceromotor response (VMR), a contraction of the abdominal and hindlimb musculature. EMG activity produced by contraction of the external oblique musculature was quantified using Spike2 software (Cambridge Electronic Designs). Each distension trial lasted 60 seconds, and EMG activity was quantitated in 1-second bins for 20 seconds before distension (baseline), during distention, and 20 seconds after distention. The increase in total number of recorded counts during distention is defined as the response. […]

COCCOCCOCCOCCOCCOCCOCCOCCOCCOC(=O)/C=C/c1ccc(-c2nc3c([nH]2)c(=O)n(CC2CCCCC2)c(=O)n3CC2CCCCC2)cc1 [(E)-4-(1,3-bis(cyclohexylmethyl)-1,2,3,6-tetrahydro-2,6-dioxo-9H-purin-8-yl)cinnamic acid nonaethylene glycol methyl ether ester]
response to colorectal distention (CRD) (as a percent of control) (12.5 mg/kg oral gavage at time 0 and 16 hours): effectively decreased the response to colorectal distention down to baseline levels
response to colorectal distention (CRD) (as a percent of control) (25 mg/kg oral gavage at time 0 and 16 hours): effectively decreased the response to colorectal distention down to baseline levels
